Reference: US6756401B2, “Compositions and methods for treating osteoporosis and lowering cholesterol” (Pfizer Inc., priority 2000, dated 2004)

Legend:
OVX rats [1] = assay: Ovariectomized rat model: bone histomorphometry of fifth lumbar vertebral body; type: in vivo; conditions: 4 weeks
Description: (§1) In women, estrogen deficiency during the menopause results in increased bone turnover leading to bone loss. Ovariectomy in rats produces estrogen deficiency and increased bone turnover leading to trabecular bone loss similar to that observed in post-menopausal women (Kalu, D. N., Bone and Mineral 1991 ;15:175; Frost, H. M., Jee W. S. S., Bone and Mineral 1992;18:227; Wronski, T. J., Yen, C-F, Cells Materials 1991;(suppl. 1):69). The OVX rat is thus an appropriate model to evaluate compounds for the prevention and treatment of post-menopausal osteoporosis. The ability of PPTN to inhibit estrogen deficiency bone loss was assessed in 5-month-old OVX rats, since ovariectomy causes significant bone loss in the lumbar vertebrae, proximal tibia, and distal femoral metaphyses (Ke, H. Z., et al., Endocrin 1995;136:2435; Chen, H. K., et al., J Bone Miner Res 1995;10:1256).
(§2) Five-month-old OVX female rats were treated with PPTN at oral doses of 0.733, 7.33, 73.3, and 733 μg/kg/day, or 17α-ethynyl estradiol (EE) at 30 μg/kg/day (10 rats per subgroup) daily for 4 weeks. The oral treatment began 1 day after surgery. Groups of vehicle-treated sham rats (n=10) and vehicle-treated OVX rats (n=10) served as controls. Calcein at 10 mg/kg was injected s.c. to all rats 12 and 2 days before necropsy as a fluorochrome bone marker to measure bone dynamic histomorphometric parameters. The effects of PPTN on the following end points were determined: (a) serum osteocalcin, a biochemical marker of bone turnover, (b) bone mineral density of lumbar vertebrae and distal femoral metaphyses, (c) bone histomorphometry of fifth lumbar vertebral body and proximal tibial metaphyses.
In order to understand the cellular mechanism of bone-protective effects of PPTN at the tissue level, bone histomorphometric methods were used to determine the effects of PPTN on cancellous bone of the fifth lumbar vertebral body in OVX rats. Ovariectomy caused significant decreases in trabecular bone volume (trabecular bone area divided by marrow space area, expressed as percent) and trabecular number, and a significant increase in trabecular separation of the fifth lumbar vertebral body.

MDA-MB-231 cells = assay: Inhibition of in vitro human breast tumor cell growth, ER-negative cells; type: cell-based; conditions: MDA-MB-231 (ER-negative), 6 days incubation, direct cell counts
Procedure: The in vitro antiproliferative effects of (−)-cis-6-phenyl-5-[4-(2-pyrrolidin-1-yl-ethoxy)-phenyl]-5,6,7,8-tetrahydro-naphthalene-2-ol (PPTN) were tested using two types of human breast cancer cell lines: first, MCF-7 cells, which contain ER as well as progesterone receptors (PgR), and second, MDA-MB-231 cells, which lack ER and PgR, and enable the determination of an effect that is independent of the ER mechanism. The effect of PPTN on the growth of these different cell lines was determined by incubation of the cells with various compound concentrations for 6 days.
The antiproliferative effects were then determined by direct cell counts. PPTN inhibited the growth of the ER-positive cell line MCF-7.

OVX rats [2] = assay: Ovariectomized rat model: femur BMD by dual-energy X-ray absorptiometry; type: in vivo; conditions: 4 weeks
Description: as §1, §2
Using dual-energy X-ray absorptiometry, the right femur of each rat was scanned ex vivo. Bone mineral density (BMD) of the distal femoral metaphyses (second 0.5 cm from the distal end of femur) and the proximal femur (the first 0.5 cm from the proximal end of femur, which contains the femoral head, neck, and greater trochanter) was determined.

OVX rats [3] = assay: Ovariectomized rat model: histomorphometry of proximal tibial metaphyses; type: in vivo; conditions: 4 weeks
Description: as §1, §2
In order to determine the effect of PPTN on long bone metaphyses, histomorphometric analyses were performed on the proximal tibiae.

OVX rats [4] = assay: Ovariectomized rat model: serum osteocalcin by radioimmunoassay; type: in vivo; conditions: daily for 4 weeks
Description: as §1
Five-month-old OVX female rats were treated with PPTN at oral doses of 0.733, 7.33, 73.3, and 733 μg/kg/day, or 17α-ethynyl estradiol (EE) at 30 μg/kg/day (10 rats per subgroup) daily for 4 weeks. […] The effects of PPTN on the following end points were determined: (a) serum osteocalcin, a biochemical marker of bone turnover, (b) bone mineral density of lumbar vertebrae and distal femoral metaphyses, (c) bone histomorphometry of fifth lumbar vertebral body and proximal tibial metaphyses. […]

OVX rats [5] = assay: Ovariectomized rat model: lumbar vertebrae BMD by dual-energy X-ray absorptiometry; type: in vivo; conditions: 4 weeks
Description: as §1, §2
The first to the sixth lumbar vertebrae from each rat were removed during necropsy. These were then scanned ex vivo using dual-energy X-ray absorptiometry. The scan images were analyzed, and bone area, bone mineral content (BMC), and bone mineral density (BMD) of whole lumbar vertebrae (WLV), and LV1 through LV6 were determined. […] The changes in BMC were similar to those observed in BMD. […]

[6] = PPTN at 7.33, 73.3, or 733 μg/kg/day oral
[7] = PPTN at doses ≧7.33 μg/kg/day oral

Oc1ccc2c(c1)CC[C@H](c1ccccc1)[C@@H]2c1ccc(OCCN2CCCC2)cc1 [PPTN, (−)-cis-6-phenyl-5-[4-(2-pyrrolidin-1-yl-ethoxy)-phenyl]-5,6,7,8-tetrahydro-naphthalene-2-ol]
ED50 in preserving lumbar vertebral cancellous bone mass and structure (OVX rats [1]; OVX rats, oral, lumbar vertebrae): less than 0.733 μg/kg/day | bone loss in lumbar vertebrae (OVX rats [1]; PPTN at 0.733 μg/kg/day oral): completely prevented bone loss | trabecular number of fifth lumbar vertebral body compared with sham controls (OVX rats [1]; PPTN at 73.3 or 733 μg/kg/day oral): significantly increased | bone turnover rate, lumbar vertebral body (OVX rats [1]; PPTN at all dose levels, oral): did not differ from sham controls | ovariectomy-induced increase in bone formation rate (BFR) (OVX rats [1]; PPTN at all dose levels, oral): inhibited this increase | percent eroded surface (index of osteoclastic bone resorption) compared with sham controls (OVX rats [1]; PPTN at all dose levels, oral): significantly decreased | ovariectomy-induced changes in trabecular bone volume, trabecular number and trabecular separation of fifth lumbar vertebral body (OVX rats [1]; all doses of PPTN (0.733 to 733 μg/kg/day oral)): completely prevented | inhibition of cell proliferation (MDA-MB-231 cells): did not inhibit cell proliferation | BMD of distal femoral metaphyses and proximal femur (OVX rats [2]; PPTN at 0.733 or 7.33 μg/kg/day oral): did not differ from OVX controls | decreases in BMD of distal femoral metaphyses and proximal femur (OVX rats [2]; PPTN at both 73.3 and 733 μg/kg/day oral): completely prevented the decreases | percent osteoclast surface compared with OVX controls (OVX rats [3]; PPTN at 0.733 μg/kg/day oral): decreased significantly | prevention of bone loss in proximal tibiae (OVX rats [3]; PPTN at 0.733 μg/kg/day oral): failed to do so | proximal tibial trabecular bone volume (OVX rats [3]; PPTN at 0.733 μg/kg/day oral): no significant effect | osteoclast number per millimeter of bone surface compared with both sham and OVX controls (OVX rats [3]; [6]): significantly decreased | percent osteoclast surface compared with both sham and OVX controls (OVX rats [3]; [6]): significantly decreased | bone turnover rate in proximal tibial trabecular bone (OVX rats [3]; PPTN at doses of 7.33 to 733 μg/kg/day oral): did not differ from sham controls | proximal tibial trabecular bone volume compared with OVX controls (OVX rats [3]; [7]): significantly greater | increase in serum osteocalcin concentration after ovariectomy (OVX rats [4]; [7]): completely prevented | lumbar vertebral BMD compared with both sham and OVX controls (OVX rats [5]; PPTN 73.3 μg/kg/day oral): increased significantly | decrease in lumbar vertebral BMD after ovariectomy (OVX rats [5]; PPTN at all dose levels (0.733 to 733 μg/kg/day oral)): completely prevented the decrease

C#C[C@]1(O)CC[C@H]2[C@@H]3CCc4cc(O)ccc4[C@H]3CC[C@@]21C [EE, 17α-ethynyl estradiol, reference compound]
bone turnover rate, lumbar vertebral body (OVX rats [1]; EE 30 μg/kg/day oral): did not differ from sham controls | ovariectomy-induced changes in trabecular bone volume, trabecular number and trabecular separation of fifth lumbar vertebral body (OVX rats [1]; EE 30 μg/kg/day oral): completely prevented | ovariectomy-induced increase in bone formation rate (BFR) (OVX rats [1]; EE 30 μg/kg/day oral): inhibited this increase | percent eroded surface (index of osteoclastic bone resorption) compared with sham controls (OVX rats [1]; EE 30 μg/kg/day oral): significantly decreased | trabecular number of fifth lumbar vertebral body compared with sham controls (OVX rats [1]; EE 30 μg/kg/day oral): significantly increased | decrease in BMD of distal femoral metaphyses after ovariectomy (OVX rats [2]; EE 30 μg/kg/day oral): prevented the decrease | proximal femoral BMD (OVX rats [2]; EE 30 μg/kg/day oral): had no effect | bone turnover rate in proximal tibial trabecular bone (OVX rats [3]; EE 30 μg/kg/day oral): did not differ from sham controls | osteoclast number per millimeter of bone surface compared with both sham and OVX controls (OVX rats [3]; EE 30 μg/kg/day oral): significantly decreased | percent osteoclast surface compared with both sham and OVX controls (OVX rats [3]; EE 30 μg/kg/day oral): significantly decreased | increase in serum osteocalcin concentration after ovariectomy (OVX rats [4]; EE 30 μg/kg/day oral): completely prevented | decrease in lumbar vertebral BMD after ovariectomy (OVX rats [5]; EE 30 μg/kg/day oral): completely prevented the decrease
